Reference: patent EP4534088A1, “ARFOLITIXORIN FOR USE IN VITAMIN B6-ENHANCED, 5-FLUOROURACIL-BASED CHEMOTHERAPY OF CARCINOMAS” (priority 2023, dated 2025)

Tests used:
thymidylate synthase = target: T1, thymidylate synthase (Homo sapiens, UniProt P04818); test: Modelle-001 Phase II clinical trial: TS inhibition in colorectal liver metastases (LC-MS/MS); format: in vivo; conditions: iv, i.v. bolus, with 500 mg/m2 5-FU, mean
T1 construct: from tissue; host or cells: colorectal liver metastasis tissue from human patients
T1 sequence (P04818 2-313 limits assumed): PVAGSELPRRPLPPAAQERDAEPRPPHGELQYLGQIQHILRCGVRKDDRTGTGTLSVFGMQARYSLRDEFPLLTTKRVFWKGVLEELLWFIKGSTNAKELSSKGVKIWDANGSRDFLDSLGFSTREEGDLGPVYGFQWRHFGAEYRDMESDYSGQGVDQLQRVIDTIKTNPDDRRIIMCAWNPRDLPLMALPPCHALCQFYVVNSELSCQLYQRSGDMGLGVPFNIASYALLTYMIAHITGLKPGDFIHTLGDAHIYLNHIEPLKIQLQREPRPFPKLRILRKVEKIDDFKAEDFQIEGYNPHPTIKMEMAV
Source text: The difference in a clinical setting in human patients between leucovorin and arfolitixorin has been analyzed by Taflin et al. in the Modelle 001 Phase 2 clinical study (TS-inhibition in Colorectal Liver Metastases Comparing Arfolitixorin and Calciumfolinate), the primary objective of which is to compare the TS-inhibtion capacity of the combination Arfolitixorin/5-FU in contrast to Calciumfolinate/5-FU in tumour, adjacent liver parenchyma and plasma in patients with liver metastases from colorectal cancer (Study Details | Modelle 001, TS-inhibition in Colorectal Liver Metastases Comparing Arfolitixorin and Calciumfolinate | ClinicalTrials.gov) (Taflin 2023).
(§1) The effectiveness of arfolitixorin vs. leucovorin in Thymidylate Synthase inhibition and in achieving high levels of [6R] 5,10-methylenetetrahydrofolate in metastatic tissue was investigated in the Modelle-001 Phase II clinical trial named "A Single-blinded, Randomized Phase II study investigating the effects of two doses of Arfolitixorin compared to Calcium folinate together with 5-fluorouracil on thymidylate synthase in tumour and adjacent hepatic tissue for patients with liver metastases from colorectal cancer". Link: Study Details I Modelle 001, TS-inhibition in Colorectal Liver Metastases Comparing Arfolitixorin and Calciumfolinate I Clinical-Trials.gov.
(§2) Aim: The Modelle-001 trial was designed to explore how a single intravenous bolus injection of Arfo as compared to LV in the form of calcium folinate, together with 5-FU affects the inhibition of TS and, further, to investigate how different forms and doses of folates affect folate concentration and polyglutamation in metastatic liver tissue.
Patients and Methods: Thirty adult patients with biopsy-verified colorectal cancer and liver metastases indicated for surgical removal were included at two Swedish University Hospitals. Both synchronous and metachronous liver metastases were accepted and most patients had received preoperative chemotherapy. […] Folate levels and TS inhibition were determined by LC-MS/MS.

[1] = cited from earlier work
[2] = cited from earlier work; remark: listed apart in the source
[3] = Modelle-001 Phase II clinical trial: folate concentration and polyglutamation in metastatic liver tissue (LC-MS/MS); format: in vivo, human; conditions: compared to LV60; for ratio of poly/monoglutamated folates: after 5-FU administration
Source text: as §1, §2
Patients and Methods: Thirty adult patients with biopsy-verified colorectal cancer and liver metastases indicated for surgical removal were included at two Swedish University Hospitals. Both synchronous and metachronous liver metastases were accepted and most patients had received preoperative chemotherapy. The first six patients received a reduced 5-FU dosage (250 mg/m2), and an independent safety committee gave permission to escalate to full dosage. Twenty-four patients were randomized to receive 500 mg/m2 5-FU either in combination with 60 mg/m2 LV (LV60, n = 12), 30 mg/m2 Arfo (A30, n = 6) or 120 mg/m2 Arfo (A120, n = 6) as a bolus regimen (a slow i.v. injection for three minutes). Metastatic tissue was collected 60 minutes after folate administration, then 5-FU was given. After a 60-minute break, metastatic tissue was again collected. Folate levels and TS inhibition were determined by LC-MS/MS.

solid tumors = test: Phase I/IIa study ISO-CC-005: tumour response to arfolitixorin doublet regimens (ARFIRI/ARFOX); format: in vivo, human; conditions: 120 mg/m^2 arfolitixorin and 5-FU with either irinotecan or oxaliplatin (ARFIRI/ARFOX)
Procedure: Arfolitixorin has been in development for a number of years and has been studied in several clinical studies.
The completion of the study was announced in January 2020. In total, 105 patients were included in the study. […] These patients had been treated with the "doublet" regimens comprising 120 mg/m^2 arfolitixorin and 5-fluorouracil (5-FU) with either irinotecan or oxaliplatin (ARFIRI/ARFOX). Out of the 31 patients, 17 were treated with an ARFOX regimen.

[4] = [6R]-MTHF levels after arfolitixorin versus comparable leucovorin treatment; format: in vivo; conditions: fold higher than leucovorin
Source text: Leucovorin and I-leucovorin, both currently approved for treatment of gastrointestinal and other cancers, need to be metabolically activated to [6R]-MTHF to potentiate the effect of 5-FU. This dependency on cellular activation provides a hurdle for reaching sufficient levels of the active [6R]-MTHF. […] Secondly, the enzymatic activation is genetically regulated^16,18, and is therefore associated with variability between individuals and conditions. Arfolitoxirin is believed to be efficacious in a larger proportion of patients with less inter- and intra-individual variability. These differences may potentially turn out to be of significant importance for increased clinical efficacy in 5-FU based cancer treatment.

[5] = tested on: advanced metastatic colorectal adenocarcinoma; conditions: FOLFIRINOX (± cetuximab) supplemented with pyridoxine in high doses, cited from earlier work

Nc1nc2c(c(=O)[nH]1)N(C=O)C(CNc1ccc(C(=O)N[C@@H](CCC(=O)O)C(=O)O)cc1)CN2 (stereo partly shown) [Leucovorin, 5-formyl tetrahydrofolic acid, reference compound]
inhibition at 60 mg/m2 (thymidylate synthase; 60 mg/m2 Leucovorin (LV60)): 25.4%

Cc1ncc(CO)c(CO)c1O.Cl [Pyridoxine hydrochloride]
stability in air ([1]; air): stable in air
stability to sunlight ([1]; sunlight): slowly affected by sunlight
volume of water in which one gram dissolves [2]: 5 mL

Nc1nc2c(c(=O)[nH]1)N1CN(c3ccc(C(=O)N[C@@H](CCC(=O)O)C(=O)O)cc3)C[C@H]1CN2 [arfolitixorin, [6R]-5,10-methylenetetrahydrofolate]
inhibition at 30 mg/m2 (thymidylate synthase; 30 mg/m2 arfolitixorin (A30)): 54.2%
inhibition at 120 mg/m2 (thymidylate synthase; 120 mg/m2 arfolitixorin (A120)): 83.8%
ratio of poly/monoglutamated folates ([3]; 30 mg/m2 (A30), p = 0.045): higher
5,10-methylenetetrahydrofolate (CH2THF) concentrations in metastases ([3]; 30 mg/m2 (A30), after 5-FU treatment, p = 0.031): higher
5,10-methylenetetrahydrofolate (CH2THF) concentrations in metastases ([3]; 30 mg/m2 (A30), before 5-FU treatment, p = 0.037): higher
ratio of poly/monoglutamated folates ([3]; 120 mg/m2 (A120), p = 0.0049): higher
5,10-methylenetetrahydrofolate (CH2THF) concentrations in metastases ([3]; 120 mg/m2 (A120), after 5-FU treatment, p = 0.0023): higher
5,10-methylenetetrahydrofolate (CH2THF) concentrations in metastases ([3]; 120 mg/m2 (A120), before 5-FU treatment, p = 0.0003): higher
best overall response rate (ORR) (solid tumors): 55%
[6R]-MTHF levels relative to comparable treatment with leucovorin [4]: 3-4 times

Cc1ncc(CO)c(CO)c1O [pyridoxine]
toxicity associated with the pyridoxine-modified protocols [5]: of the same magnitude as expected for the standard protocols
Antitumor activity ([5]; five patients, no controls): high for several patients
